According to US20230372433A1, “NANOPARTICLE FOR ANTI-CANCER PEPTIDES AND USES THEREOF” (KING'S COLLEGE LONDON, priority 2020, published 2023):
Read-outs that look alike come from different tables or passages of the source.

Columns and labels:
[1] = system: HMLER (human breast cancer bulk cell); assay: MTT cytotoxicity assay, HMLER; assay type: cell-based; settings: 72 hr, MTT; read-out: IC50 HMLER
[2] = ANTS/DPX liposome leakage assay, 3POPC/1POPG vesicles; assay type: biochemical; settings: for Peptide Concentration-induced 50% ANTS/DPX leakage at pH 4.8 (L/P) 3POPC/1POPG Vesicle / Peptide Concentration-induced 50% ANTS/DPX leakage at pH 7.4 (L/P) 3POPC/1POPG Vesicle: 0.5 mM vesicles
Method: (§1) In brief, 0.5 mM POPC vesicles (grey) or POPC:POPG vesicles (ratio 3:1, black) were incubated with peptide concentrations of 0, 0.02, 0.04, 0.08, 0.16, 0.32, 0.64, 1.25, 2.5, 5, 10, and 20 μM in each A) hydrochloric acid-adjusted phosphate buffered saline (1X, pH 4.8) and B) phosphate buffered saline (1X, pH 7.4).
(§2) The lipids 1-palmitoyl-2-oleoyl-sn-glycero-3-phosphocholine (POPC), 1-palmitoyl-2-oleoyl-snglycero-3-phospho-(1′-rac-glycerol) (POPG) were purchased from Avanti Polar Lipids and dissolved in chloroform. Large unilamellar vesicles (LUVs) were produced by extrusion through 100 nm pore filter using an extruder and filters purchased from Avanti Polar Lipids.
(§3) 5 mM ANTS (8-aminonaphthalene-1,3,6-trisulfonic acid, disodium salt) and 12.5 mM DPX (p-xylene-bis-pyridinium bromide) were entrapped in 0.1 μm diameter extruded vesicles with lipids. Gel filtration chromatography using a Sephadex G-100 (GE Healthcare Life Sciences Inc) was used to remove external free ANTS/DPX from LUVs with entrapped contents. LUVs were diluted to 0.5 mM and used to measure the leakage activity by addition of aliquots of peptides. Leakage was measured after 3 h incubation. 10% Triton was used as the positive control to measure the maximum leakage of the vesicle. Fluorescence emission spectra were recorded using excitation and emission wavelength of 350 nm and 510 nm for ANTS/DPX using a BioTek Synergy H1 Hybrid Multi-Mode Reader.
(§4) Table 4 illustrates peptide concentration-induced 50 ANTS/DPX liposome leakage. 0.5 mM POPC and 3POPC/1POPG vesicles were fixed and incubated with titrated peptide concentration (0, 0.02, 0.04, 0.08, 0.16, 0.32, 0.64, 1.25, 2.5, 5, 10, and 20 μM) each in phosphate buffered saline (1X, pH 7.4) and hydrochloric acid-adjusted phosphate buffered saline (1X, pH 4.8). The values are shown as lipid per peptide. IN-terminus is free, C-terminus: —W—NH2.

[3] = system: HEK293T (human embryonic kidney cell); assay: MTT cytotoxicity assay, HEK293T; assay type: cell-based; settings: 72 hr, MTT; read-out: IC50 HEK293T
[4] = system: MCF-10A (human breast epithelial cell); assay: cells
Text: HMLER (human mammary endothelial cancer cells), HMLER-shEcad (human mammary endothelial cancer stem cells), and MCF-10A (healthy human mammary endothelial) cells were maintained in Mammary Epithelial Cell Growth Medium (MEGM) with supplements and growth factors: bovine pituitary extract (BPE), hydrocortisone, human epidermal growth factor (hEGF), insulin, and gentamicin/amphotericin-B. HEK293T (human embryonic kidney cell), and U2OS (homo sapiens bone osteosarcoma) cells were maintained in Dulbecco's Modified Eagle's Medium (DMEM) with a final concentration of 10% fetal bovine serum. The cells were grown in T75 flask at 310 K in a humidified atmosphere containing 5% CO2.
The colourimetric MTT (3-(4,5-dimethylthiazol-2-yl)-2,5-diphenyltetrazolium bromide) assay was used to determine the toxicity of the anti-cancer peptides and conventional anti-cancer drugs. 5×10^3 cells were seeded in each well of a 96-well microplate. The cells were incubated overnight. Elevated concentrations of the compounds (0, 0.1, 0.2, 0.4, 0.8, 1.6, 3.1, 6.3, 12.5, 25, 50 and 100 μM) were added and incubated for 72 hr with a total volume 200 μL. The stock solutions of the compounds were prepared as 5 mM solutions in DMSO and diluted using media or in pure water. The final concentration of DMSO in each well was either 0.5% or 0% and this amount was present in the untreated control. After 72 hr, 20 μL of a 4 mg/mL solution of MTT in PBS was added to each well, and the plate was incubated for an additional 4 hr. The MEGM/MTT mixture was aspirated and 100 μL of DMSO was added to dissolve the resulting purple formazan crystals. The absorbance of the solutions in each well was read at 550 nm wavelength. Absorbance values were normalized to either DMSO-containing or non DMSO-containing control wells and plotted as concentration of test compound versus % cell viability. ICso values were interpolated from the resulting dose dependent curves.
The peptides were screened against several different human cell lines and their cytotoxicity were determined. Cell lines utilised include MCF-10A (human breast epithelial cell), HMLER (human breast cancer bulk cell), HMLER-shEcad (human breast cancer stem cell), HEK293T (human embryonic kidney cell), and U2OS (human bone osteosarcoma).

[5] = Tryptophan fluorescent binding assay, POPC vesicles; settings: 50 μM peptide, PBS pH 7.4
Method: (§5) In brief, 50 μM peptides were fixed and incubated with titrated POPC vesicles (black) or 3POPC/1POPG vesicles (grey) at concentrations of 0, 12.5, 25, 50, 100, 250, 500, 1000, 2500, and 5000 μM in phosphate buffered saline (1X, pH 7.4). The lipid concentration that causes 50% peptide binding was determined using a tryptophan fluorescent binding assay and the values are shown as lipid per peptide.
as §2
(§6) Peptides (50 μM) and POPC/POPG LUVs (600 μM) were prepared in 10 mM phosphate buffer (pH 7.0). The solutions were incubated and measured after 60 minutes. Excitation was fixed at 280 nm (slit 9 nm) and emission was collected from 300 to 450 nm (slit 9 nm). The spectra were recorded using a Synergy H1 Hybrid Multi-Mode Reader (FIG. 3A) and Cytation™ 5 Cell Imaging Multi-Mode Reader (FIG. 2) from BioTek and were averaged over 3 scans.
(§7) Table 3 illustrates the lipid concentration-induced 50% peptide binding onto a liposome. 50 μM peptide was fixed and incubated with titrated lipid (POPC vesicles or 3POPC/1POPG vesicles) at concentrations of 0, 12.5, 25, 50, 100, 250, 500, 1000, 2500, and 5000 μM in phosphate buffered saline (1X, pH 7.4). The lipid concentration that causes 50% peptide binding was determined using tryptophan fluorescent binding assay and the values are shown as lipid per peptide. IN-terminus is free, C-terminus: —W—NH2.

[6] = system: HMLER-shEcad (human breast cancer stem cell); assay: MTT cytotoxicity assay, HMLER-shEcad; assay type: cell-based; settings: 72 hr, MTT; read-out: IC50 HMLER-shEcad
[7] = ANTS/DPX liposome leakage assay, POPC vesicles; assay type: biochemical; settings: 0.5 mM vesicles
Method: as §1, §2, §3, §4

[8] = system: U2OS (human bone osteosarcoma); assay: MTT cytotoxicity assay, U2OS; assay type: cell-based; settings: 72 hr
[9] = Tryptophan fluorescent binding assay, 3POPC/1POPG vesicles; settings: 50 μM peptide, PBS pH 7.4
Method: as §5, §2, §6, §7

Compound	IC50 [1]	Peptide Concentration-induced 50% ANTS/DPX leakage at pH 4.8 (L/P) 3POPC/1POPG Vesicle ([2]; pH 4.8)	Peptide Concentration-induced 50% ANTS/DPX leakage at pH 7.4 (L/P) 3POPC/1POPG Vesicle [2]	liposome leakage activity from anionic vesicle at pH 4.8 ([2]; compared with zwitterionic vesicle, pH 4.8)	IC50 [3]	IC50 [4]	Lipid Concentration-induced 50% Peptide Binding (L/P) POPC Vesicle [5]	IC50 [6]	Peptide Concentration-induced 50% ANTS/DPX leakage at pH 4.8 (L/P) POPC Vesicle [7]	Peptide Concentration-induced 50% ANTS/DPX leakage at pH 7.4 (L/P) POPC Vesicle [7]	IC50 [8]	Lipid Concentration-induced 50% Peptide Binding (L/P) 3POPC/1POPG Vesicle [9]	IC50 ([4]; read-out: IC50 MCF-10A, 72 hr, MTT)
CC(C)C[C@H](NC(=O)CN)C(=O)N[C@@H](CC(C)C)C(=O)N[C@@H](CC(=O)O)C(=O)N[C@@H](CC(C)C)C(=O)N[C@@H](CC(C)C)C(=O)N[C@@H](CCC(=O)O)C(=O)N[C@@H](CC(C)C)C(=O)N[C@@H](CC(C)C)C(=O)N[C@@H](CC(C)C)C(=O)N[C@@H](CCCCN)C(=O)N[C@@H](C)C(=O)N[C@@H](C)C(=O)NCC(=O)N[C@@H](Cc1c[nH]c2ccccc12)C(N)=O [DEK]	1.14 ± 0.52 µM	469 L/P	773 L/P	relatively higher liposome leakage activity	6.8 ± 0.85 µM	≥ 100 µM	1.50 L/P	0.7 ± 0.07 µM	10 L/P	747 L/P	19.9 ± 2.65 µM	1.67 L/P	
CC(C)C[C@H](NC(=O)CN)C(=O)N[C@@H](CC(C)C)C(=O)N[C@@H](CCC(=O)O)C(=O)N[C@@H](CC(C)C)C(=O)N[C@@H](CC(C)C)C(=O)N[C@@H](CCC(=O)O)C(=O)N[C@@H](CC(C)C)C(=O)N[C@@H](CC(C)C)C(=O)N[C@@H](CC(C)C)C(=O)N[C@@H](CCC(=O)O)C(=O)N[C@@H](C)C(=O)N[C@@H](C)C(=O)NCC(=O)N[C@@H](Cc1c[nH]c2ccccc12)C(N)=O [EEE]	6.25 ± 1.77 µM	28 L/P	346 L/P		50 µM	≥ 100 µM	1.33 L/P	10.6 ± 3.46 µM	35 L/P	143 L/P	78.8 ± 5.3 µM	4.50 L/P	
GLDDLAKLLLKLAG [25B2, reference compound]	8.36 ± 0.61 µM				25.2 ± 2.19 µM			11.7 ± 0.49 µM			54 ± 8.43 µM		26.7 ± 3.33 µM
GLLDLLHLLLHAAG [DHH]	21.4 ± 2.47 µM	98 L/P	692 L/P		6.4 ± 0.42 µM		0.67 L/P	11.9 ± 0.14 µM	106 L/P	684 L/P	55.9 ± 18.9 µM	0.28 L/P	
